Experimental data: patent publication US20230094843A1, “PHARMACEUTICAL COMBINATION FOR TREATING TUMORS AND APPLICATION THEREOF” (FUKANG (SHANGHAI) HEALTH TECHNOLOGY CO., LTD, priority 2019, published 2023)

What was measured:
[1] = tested on: human-derived CD45+ cells (hCD45 cells); assay: FACS assay of hCD45 in peripheral blood 3 weeks after PBMC grafting; format: in vivo, Mus Musculus, NCG; conditions: FIG. 4
Description: Three weeks after PBMC grafting, peripheral blood of the mice was collected, and the proportion of human-derived CD45^+ cells (hCD45 cells) therein was determined by flow cytometry (FACS). After the end of study, the tumors was removed, weighed and photographed.

[2] = cited from earlier work
[3] = tested on: MDA-MB-436 tumor cells; assay: PBMC humanized MDA-MB-436 subcutaneous tumor grafting model, tumor growth inhibition; format: in vivo, Mus Musculus, NCG; conditions: for Tumor growth inhibition (%): PG-D24, TGI=(1-T/C)x100% from relative tumor volume, mefuparib HCl 40 mg/kg p.o., Tuoyi 10 mg/kg i.p.; for Tumor volume, Grouping (PG-D0): at grouping, start of treatment, mefuparib HCl 40 mg/kg p.o. qod, Tuoyi 10 mg/kg i.p. q4d; for Tumor volume, Administration (PG-D24): day 24 after grouping, mefuparib HCl 40 mg/kg p.o. qod x 13, Tuoyi 10 mg/kg i.p. q4d x 7
Description: Species: Mus Musculus, NCG (NOD-Prkdc^em26Cd52II2rg^em26Cd22/N ju), female; weight: 18-22 g; quantity: 55; supplier: GemPharmatech.
MDA-MB-436 tumor cells (YK-CL-075) were purchased from ATCC. The tumor cells were cultured in the Leibovitz's L-15 medium containing inactivated 10% fetal bovine serum, 100 U/mL of penicillin and 100 μg/mL of streptomycin in a 37° C./5% CO2 incubator, and were passaged every 3 to 4 days when the cells were overgrown. The tumor cells in logarithmic phase were used for in vivo tumor grafting.
PBMCs (human peripheral blood mononuclear cells) were purchased from […] (Donor#: A0075).
MDA-MB-436 tumor cells were resuspended in a 1:1 (v:v) mixture of PBS and Matrigel at a concentration of 1×10^8 cells/mL, and were grafted subcutaneously at the right flank of mice at 100 μL/mouse. When the tumor grew to about 1000 mm^3, the tumors were aseptically removed and cut into small pieces having dimensions of about 2 mm×2 mm×2 mm, which were grafted subcutaneously at the right flank of experimental animals. After 2 weeks, PBMCs were resuspended in PBS and grafted into mice in an amount of 2×10^6 cells/mouse. The animals were divided into 4 groups of 10 and treated (the day was recorded as PG-D0) when the tumor grew to about 93 mm^3.
The long and short diameters of the tumor were measured twice every week using a vernier caliper for calculating the tumor volume, and the calculation formula was: volume=0.5×long diameter×[…].
The T/C value was calculated from the tumor volume, where T is the mean relative tumor volume (RTV) of each treatment group and C is the mean RTV of the control group. RTV is the ratio of tumor volume after the treatment to that before the treatment. Tumor growth inhibition (TGI, %)=(1−T/C)×100%.
Inter-group statistical analysis was performed on tumor volume using IBM SPSS Statistics 22.0 software and mixed linear model analysis. Inter-group statistical analysis was performed on tumor weight using One-Way ANOVA analysis, with p<0.05 indicating significant differences.

[4] = Water solubility; format: physicochemical; conditions: times higher than that of olaparib
[5] = tested on: BRCA-mutant and HER2-negative advanced breast cancer; conditions: cited from earlier work
[6] = patients receiving olaparib monotherapy

## CNCc1ccc(-c2cc3cc(F)cc(C(N)=O)c3o2)cc1.Cl [Mefuparib hydrochloride, mefuparib hydrochloride]
[1]
  percentage median of hCD45 cells in peripheral blood compared with the control group: higher than that in the control group
[2]
  water solubility: > 35 mg/mL
[3]; hydrochloride
  Tumor growth inhibition (%): 54%
[3]; listed as mefuparib hydrochloride, hydrochloride
  Tumor growth inhibition (%): 54%
[3]
  Tumor volume, Grouping (PG-D0): 93 ± 6 mm^3
  Tumor volume, Administration (PG-D24): 761 ± 130 mm^3
[4]
  water solubility relative to olaparib: 350 times

## O=C(c1cc(Cc2n[nH]c(=O)c3ccccc23)ccc1F)N1CCN(C(=O)C2CC2)CC1 [olaparib]
[5]; associated with olaparib
  grade 3 adverse event: anemia: 12%
  grade 3 adverse event: neutropenia: 6%
[5]; [6]
  median PFS: 7.0 months
  response rate: 59.9%

## durvalumab
[5]; associated with durvalumab
  grade 3 adverse event: pancreatitis: 6%

## toripalimab [Tuoyi PD-1 monoclonal antibody injection]
[1]
  percentage median of hCD45 cells in peripheral blood compared with the control group: higher than that in the control group
[3]
  Tumor growth inhibition (%): 29%
  Tumor volume, Grouping (PG-D0): 94 ± 7 mm^3
  Tumor volume, Administration (PG-D24): 1256 ± 252 mm^3
